Measured values taken from ChEMBL document CHEMBL1133030, “Synthesis and in vitro evaluation of human FP-receptor selective prostaglandin analogues” (Bioorg Med Chem Lett, 2000).

What was measured:
[1] = molecular target: T1, Prostaglandin E2 receptor EP1 subtype (Homo sapiens, UniProt P34995); assay: Functional activity in RAT-1cells, transiently-transfected with human Prostaglandin E receptor EP1 (% of control ligand, 17-phi-PGE2=80%)
T1 sequence (P34995 whole entry): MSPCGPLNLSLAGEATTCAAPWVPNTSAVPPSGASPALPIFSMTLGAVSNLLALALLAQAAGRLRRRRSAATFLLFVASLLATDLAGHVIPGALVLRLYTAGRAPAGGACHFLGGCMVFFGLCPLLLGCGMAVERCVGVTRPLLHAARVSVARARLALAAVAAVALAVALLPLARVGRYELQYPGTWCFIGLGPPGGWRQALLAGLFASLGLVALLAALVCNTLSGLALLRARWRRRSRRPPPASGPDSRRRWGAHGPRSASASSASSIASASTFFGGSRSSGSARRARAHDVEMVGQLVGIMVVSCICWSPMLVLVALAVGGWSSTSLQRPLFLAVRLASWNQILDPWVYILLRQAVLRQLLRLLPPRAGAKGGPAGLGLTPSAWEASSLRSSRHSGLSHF

[2] = molecular target: T2, Prostaglandin E2 receptor EP3 subtype (Homo sapiens, UniProt P43115); assay: Functional activity in RAT-1cells, transiently-transfected with human Prostaglandin E receptor EP3 (% of control ligand, sulprostone=50%)
T2 sequence (P43115 whole entry): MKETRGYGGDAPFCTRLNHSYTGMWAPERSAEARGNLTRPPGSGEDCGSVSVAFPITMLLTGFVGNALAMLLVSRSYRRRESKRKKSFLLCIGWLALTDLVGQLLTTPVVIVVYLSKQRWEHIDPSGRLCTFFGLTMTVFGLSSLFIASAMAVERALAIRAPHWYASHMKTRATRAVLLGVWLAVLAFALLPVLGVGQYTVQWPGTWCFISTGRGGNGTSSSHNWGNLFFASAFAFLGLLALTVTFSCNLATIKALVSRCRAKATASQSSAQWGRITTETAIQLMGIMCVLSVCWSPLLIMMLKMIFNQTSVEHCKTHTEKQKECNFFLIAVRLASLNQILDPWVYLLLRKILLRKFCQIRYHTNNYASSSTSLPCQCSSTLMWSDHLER

Thromboxane A2 receptor [3] = molecular target: T3, Thromboxane A2 receptor (Homo sapiens, UniProt P21731); assay: Functional activity in RAT-1cells, transiently-transfected with human TP-receptor (% of control ligand, [3H]-U-46,619=95%)
T3 sequence (P21731 whole entry): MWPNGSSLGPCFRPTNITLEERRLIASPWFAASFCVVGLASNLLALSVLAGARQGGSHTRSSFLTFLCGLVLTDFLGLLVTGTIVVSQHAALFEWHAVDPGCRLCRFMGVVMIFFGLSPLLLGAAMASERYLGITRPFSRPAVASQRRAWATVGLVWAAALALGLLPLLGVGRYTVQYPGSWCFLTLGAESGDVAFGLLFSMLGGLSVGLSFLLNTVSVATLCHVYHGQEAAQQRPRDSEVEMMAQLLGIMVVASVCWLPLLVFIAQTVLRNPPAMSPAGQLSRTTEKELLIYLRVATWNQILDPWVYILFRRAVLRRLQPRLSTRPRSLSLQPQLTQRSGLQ

[4] = molecular target: T2, Prostaglandin E2 receptor EP3 subtype; assay: Displacement of [3H]PGE-2 from human Prostaglandin E receptor EP3 expressed in CHO-KI cells; type: cell-based
Thromboxane A2 receptor [5] = molecular target: T3, Thromboxane A2 receptor; assay: Displacement of [3H]-U-46,619 from human TP-receptor expressed in CHO-KI cells; type: cell-based
[6] = molecular target: T4, Prostaglandin F2-alpha receptor (Homo sapiens, UniProt P43088); assay: Displacement of [3H]PGF-2 from human FP-receptor expressed in CHO-KI cells; type: cell-based
[7] = molecular target: T1, Prostaglandin E2 receptor EP1 subtype; assay: Displacement of [3H]PGE-2 from Prostaglandin E receptor EP1 expressed in CHO-KI cells; type: cell-based
Thromboxane A2 receptor [8] = molecular target: T3, Thromboxane A2 receptor; assay: Functional activity in RAT-1cells, transiently-transfected with human TP-receptor (% of control ligand, [3H]-U-46,619=50%)
[9] = molecular target: T1, Prostaglandin E2 receptor EP1 subtype; assay: Functional activity in RAT-1cells, transiently-transfected with human Prostaglandin E receptor EP1 (% of control ligand, 17-phi-PGE2<50%)
[10] = molecular target: T2, Prostaglandin E2 receptor EP3 subtype; assay: Functional activity in RAT-1cells, transiently-transfected with human Prostaglandin E receptor EP3 (% of control ligand, sulprostone<50%)
[11] = molecular target: T4, Prostaglandin F2-alpha receptor; assay: Displacement of [3H]PGF2-alpha from human FP-receptor expressed in CHO-KI cells; type: cell-based
[12] = molecular target: T4, Prostaglandin F2-alpha receptor; assay: Functional activity in RAT-1cells, transiently-transfected with human FP-receptor (% of control ligand, fluprostenol=87%)
[13] = molecular target: T4, Prostaglandin F2-alpha receptor; assay: Functional activity in RAT-1cells, transiently-transfected with human FP-receptor (% of control ligand, fluprostenol=100%)
[14] = molecular target: T1, Prostaglandin E2 receptor EP1 subtype; assay: Functional activity in RAT-1cells, transiently-transfected with human Prostaglandin E receptor EP1 (% of control ligand, 17-phi-PGE2=100%)
Thromboxane A2 receptor [15] = molecular target: T3, Thromboxane A2 receptor; assay: Functional activity in RAT-1cells, transiently-transfected with human TP-receptor (% of control ligand, [3H]-U-46,619=90%)
[16] = molecular target: T4, Prostaglandin F2-alpha receptor; assay: Functional activity in RAT-1cells, transiently-transfected with human FP-receptor (% of control ligand, fluprostenol=150%)
[17] = molecular target: T2, Prostaglandin E2 receptor EP3 subtype; assay: Functional activity in RAT-1cells, transiently-transfected with human Prostaglandin E receptor EP3 (% of control ligand, sulprostone=130%)
[18] = molecular target: T2, Prostaglandin E2 receptor EP3 subtype; assay: Functional activity in RAT-1cells, transiently-transfected with human Prostaglandin E receptor EP3(% of control ligand, sulprostone=75%)
Thromboxane A2 receptor [19] = molecular target: T3, Thromboxane A2 receptor; assay: Functional activity in RAT-1cells, transiently-transfected with human TP-receptor (% of control ligand, [3H]-U-46,619=100%)
[20] = molecular target: T1, Prostaglandin E2 receptor EP1 subtype; assay: Compound was evaluated for its ability to displace [3H]PGE-2 from human Prostaglandin E receptor EP1 isolated from CHO-KI cells (% of control ligand, 17-phi-PGE2=80%); type: cell-based
[21] = molecular target: T2, Prostaglandin E2 receptor EP3 subtype; assay: Compound was evaluated for its ability to displace [3H]-PGE-2 from human Prostaglandin E receptor EP3 isolated from CHO-KI cells; type: cell-based
[22] = molecular target: T4, Prostaglandin F2-alpha receptor; assay: Functional activity in RAT-1cells, transiently-transfected with human FP-receptor (% of control ligand, fluprostenol=90%)
Thromboxane A2 receptor [23] = molecular target: T3, Thromboxane A2 receptor; assay: Functional activity in RAT-1cells, transiently-transfected with human TP-receptor (% of control ligand, [3H]-U-46,619<20%)
[24] = molecular target: T2, Prostaglandin E2 receptor EP3 subtype; assay: Functional activity in RAT-1cells, transiently-transfected with human Prostaglandin E receptor EP3 (% of control ligand, sulprostone<20%)
[25] = molecular target: T1, Prostaglandin E2 receptor EP1 subtype; assay: Functional activity in RAT-1cells, transiently-transfected with human Prostaglandin E receptor EP1 (% of control ligand, 17-phi-PGE2<20%)
[26] = molecular target: T4, Prostaglandin F2-alpha receptor; assay: Functional activity in RAT-1cells, transiently-transfected with human FP-receptor (% of control ligand, fluprostenol<20%)
[27] = molecular target: T4, Prostaglandin F2-alpha receptor; assay: Functional activity in RAT-1cells, transiently-transfected with human FP-receptor (% of control ligand, fluprostenol=50%)

T4 sequence (P43088 whole entry): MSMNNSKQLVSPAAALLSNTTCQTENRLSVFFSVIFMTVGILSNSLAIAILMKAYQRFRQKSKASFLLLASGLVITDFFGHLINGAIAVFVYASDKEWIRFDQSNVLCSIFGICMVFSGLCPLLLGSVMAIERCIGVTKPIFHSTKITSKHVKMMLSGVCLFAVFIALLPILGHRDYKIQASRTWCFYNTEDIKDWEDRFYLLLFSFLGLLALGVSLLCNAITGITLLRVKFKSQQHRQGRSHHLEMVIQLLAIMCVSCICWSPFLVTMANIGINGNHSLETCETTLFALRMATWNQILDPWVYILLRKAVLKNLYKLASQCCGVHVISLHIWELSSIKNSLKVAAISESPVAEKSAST

IC50 [4] [µM] | IC50 (Thromboxane A2 receptor [5]) [µM] | IC50 [6] [µM] | IC50 [7] [µM] | SMILES | further results
– | – | – | – | CCCCC[C@H](O)/C=C/[C@@H]1[C@@H](C/C=C\CCCC(=O)O)[C@@H](O)C[C@H]1O [DINOPROST] | EC50 [1]: 0.6 µM; EC50 [2]: 2.3 µM; EC50 (Thromboxane A2 receptor [3]): 1.4 µM
> 10 | > 10 | 0.21 | 3.45 | O=C(O)CCCCCC[C@@H]1[C@@H](CC[C@@H](O)CCc2ccc(F)cc2)[C@H](O)C[C@@H]1O | –
– | – | – | – | O=C(O)CCC/C=C\C[C@@H]1[C@@H](/C=C/[C@@H](O)CCc2cccc(C(F)(F)F)c2)[C@H](O)C[C@@H]1O | EC50 (Thromboxane A2 receptor [8]): 2.1 µM; EC50 [9]: > 20 µM; EC50 [10]: > 20 µM; IC50 [11]: 0.01 µM; EC50 [12]: 0.064 µM
> 10 | > 10 | 0.29 | > 10 | COc1ccc(CC[C@H](O)CC[C@@H]2[C@@H](CCCCCCC(=O)O)[C@@H](O)C[C@H]2O)cc1 | –
– | – | 4.4 | – | Cc1ccc(CC[C@H](O)CC[C@@H]2[C@@H](CCCCCCC(=O)O)[C@@H](O)C[C@H]2O)cc1 | –
– | – | – | – | O=C(O)CCCCCC[C@@H]1[C@@H](CC[C@@H](O)COc2cccc(Cl)c2)[C@H](O)C[C@@H]1O | EC50 [13]: 0.009 µM; EC50 [10]: > 20 µM; IC50 [11]: 0.001 µM; EC50 [14]: 19 µM; EC50 (Thromboxane A2 receptor [15]): 8 µM
– | – | 5.89 | – | COc1ccccc1CC[C@H](O)CC[C@@H]1[C@@H](CCCCCCC(=O)O)[C@@H](O)C[C@H]1O | –
– | – | – | – | CCCCC(C)(C)[C@H](O)/C=C/[C@@H]1[C@@H](C/C=C\CCCC(=O)O)[C@@H](O)C[C@H]1O | EC50 [16]: 0.09 µM; EC50 [1]: 0.3 µM; EC50 [17]: 2 µM; IC50 [11]: 0.016 µM; EC50 (Thromboxane A2 receptor [3]): 0.024 µM
> 10 | > 10 | 0.54 | > 10 | CCc1cccc(CC[C@H](O)CC[C@@H]2[C@@H](CCCCCCC(=O)O)[C@@H](O)C[C@H]2O)c1 | –
> 10 | > 10 | 0.63 | 10 | Cc1ccccc1CC[C@H](O)CC[C@@H]1[C@@H](CCCCCCC(=O)O)[C@@H](O)C[C@H]1O | –
– | – | – | – | O=C(O)CCC/C=C\C[C@@H]1[C@@H](/C=C/[C@@H](O)COc2cccc(Cl)c2)[C@H](O)C[C@@H]1O [CLOPROSTENOL] | EC50 [18]: 5 µM; EC50 (Thromboxane A2 receptor [19]): 2.4 µM; EC50 [1]: 0.76 µM
> 10 | > 10 | 0.076 | 3.1 | O=C(O)CCCCCC[C@@H]1[C@@H](CC[C@@H](O)CCc2ccccc2F)[C@H](O)C[C@@H]1O | –
> 10 | > 10 | 0.082 | 1.1 | O=C(O)CCCCCC[C@@H]1[C@@H](CC[C@@H](O)CCc2ccccc2)[C@H](O)C[C@@H]1O | –
> 10 | > 10 | 1.62 | – | COc1cccc(CC[C@H](O)CC[C@@H]2[C@@H](CCCCCCC(=O)O)[C@@H](O)C[C@H]2O)c1 | IC50 [20]: > 10 µM
– | > 10 | 0.21 | > 10 | N#Cc1cccc(CC[C@H](O)CC[C@@H]2[C@@H](CCCCCCC(=O)O)[C@@H](O)C[C@H]2O)c1 | IC50 [21]: > 10 µM
– | – | 2.14 | – | O=C(O)CCCCCC[C@@H]1[C@@H](CC[C@@H](O)CCc2ccccc2C(F)(F)F)[C@H](O)C[C@@H]1O | –
– | – | 3.63 | – | O=C(O)CCCCCC[C@@H]1[C@@H](CC[C@@H](O)CCc2ccc(C(F)(F)F)cc2)[C@H](O)C[C@@H]1O | –
> 10 | > 10 | 0.0086 | > 10 | O=C(O)CCCCCC[C@@H]1[C@@H](CC[C@@H](O)CCc2cccc(C(F)(F)F)c2)[C@H](O)C[C@@H]1O | EC50 (Thromboxane A2 receptor [8]): > 20 µM; EC50 [10]: > 20 µM; IC50 [11]: 0.0086 µM; EC50 [14]: 30 µM; EC50 [22]: 0.085 µM
– | – | – | – | CCCCC(C)(C)[C@H](O)CC[C@@H]1[C@@H](CCCCCCC(=O)O)[C@@H](O)C[C@H]1O | EC50 (Thromboxane A2 receptor [23]): > 20 µM; IC50 [11]: > 1 µM; EC50 [24]: > 20 µM; EC50 [25]: > 20 µM; EC50 [26]: > 20 µM
3.7 | > 10 | 0.042 | 10 | O=C(O)CCCCCC[C@@H]1[C@@H](CC[C@@H](O)CCc2cccc(F)c2)[C@H](O)C[C@@H]1O | –
– | – | – | – | CCCCC[C@H](O)CC[C@@H]1[C@@H](CCCCCCC(=O)O)[C@@H](O)C[C@H]1O | EC50 (Thromboxane A2 receptor [19]): 30 µM; EC50 [9]: > 10 µM; EC50 [10]: > 20 µM; IC50 [11]: 0.522 µM; EC50 [27]: 5 µM
